Source: patent publication US20060014643A1, “Combinations of aryloxyphenoxypropionates and safeners and their use for increasing weed control” (BAYER CROPSCIENCE GMBH, priority 2002, published 2006)

Experiments:
Type in all cases: in vivo
Setaria lutescens = experiment: Post-emergence weed control in spring wheat (field trial); settings: visual scoring 4 weeks after treatment vs untreated, rate g a.i./ha: (A1) 112, (A3) 1680, (B1) 28, mixtures 112 + 28 and 1680 + 28, 300 l water/ha
Method: (§1) Spring wheat was grown outdoors on plots under natural outdoor conditions, and seeds of typical harmful plants were laid out. Treatment with a mixture of a (hetero)aryloxyphenoxypropionate herbicide and the safener mefenpyr-diethyl using standard formulations of the active ingredients at an application rate of 300 l water per hectare was carried out after the harmful plants had emerged and the spring wheat was in the growth stage between 3 and 5 leaves for the plants. The effect of the composition was assessed 4 weeks after treatment by scoring visually in comparison with untreated controls.

[1] = system: Triticum aestivum (spring wheat); experiment: Phytotoxicity (crop damage) to spring wheat (field trial); settings: spring wheat at 3-5 leaves, visual scoring 4 weeks after treatment, rate g a.i./ha: (A1) 112, (A3) 1680, (B1) 28, mixtures 112 + 28 and 1680 + 28
Method: as §1

[2] = system: Triticum aestivum (winter wheat); experiment: Phytotoxicity (crop damage) to winter wheat (field trial); settings: winter wheat at 3-5 leaves, visual scoring 112 days after treatment, rate g a.i./ha: (A5) 37.3, (B1) 10, (A5)+(B1) 37.3 + 10
Method: (§2) Winter wheat was grown outdoors on plots under natural outdoor conditions, and seeds of typical harmful plants were laid out. […] The effect of the composition was assessed 112 days after treatment by scoring visually in comparison with untreated controls.

Alopecurus myosuroides = experiment: Post-emergence weed control in winter wheat (field trial); settings: visual scoring 112 days after treatment vs untreated, rate g a.i./ha: (A5) 37.3, (B1) 10, (A5)+(B1) 37.3 + 10, 300 l water/ha
Method: as §2

CC(Oc1ccc(Oc2ccc(Cl)cc2Cl)cc1)C(=O)O (racemic) [(A3), (RS)-2-[4-(2,4-dichlorophenoxy)phenoxy]propionic acid]
Weed control (%) of SETLU (Setaria lutescens): 45% | Phytotox (%) of TRZAS [1]: 12%

C#CCOC(=O)[C@@H](C)Oc1ccc(Oc2ncc(Cl)cc2F)cc1 [(A1), prop-2-ynyl (R)-2-[4-(5-chloro-3-fluoropyridin-2-yloxy)phenoxy]propionate]
Weed control (%) of SETLU (Setaria lutescens): 68% | Phytotox (%) of TRZAS [1]: 20%

CCOC(=O)C1=NN(c2ccc(Cl)cc2Cl)C(C)(C(=O)OCC)C1 (stereo not shown) [(B1), ethyl 1-(2,4-dichlorophenyl)-5-(ethoxycarbonyl)-5-methyl-2-pyrazoline-3-carboxylate]
Weed control (%) of SETLU (Setaria lutescens): 0% | Phytotox (%) of TRZAW [2]: 0% | Phytotox (%) of TRZAS [1]: 0% | Weed control (%) of ALOMY (Alopecurus myosuroides): 0%

CCOC(=O)[C@@H](C)Oc1ccc(Oc2nc3ccc(Cl)cc3o2)cc1 [(A5), ethyl (R)-2-[4-(6-chloro-1,3-benzoxazol-2-yloxy)phenoxy]propionate]
Phytotox (%) of TRZAW [2]: 10% | Weed control (%) of ALOMY (Alopecurus myosuroides): 69%
